{
  "source": "patent US20240390434A1",
  "about": "“PROBIOTIC ENHANCERS AND USES THEREOF” (Blis Technologies Limited, priority 2021, published 2024)",
  "format_in_all_cases": "cell-based",
  "key": {"[1]": {"test_system": "S. pyogenes 71-698", "experiment": "Deferred antagonism assay, producer S. salivarius K12", "conditions": "Streptococcus pyogenes, 71698, K12, read-out: Size of zone inhibition normalised to control, S. pyogenes 71-698", "protocol": "(§1) 1-2 producer strain colonies were transferred from a stock plate into 900 μL of suspension solution using a fresh cotton swab. Following this, suspensions were vortexed, and a sample was inoculated onto solid culture media using a fresh cotton swab. The inoculation was a streak that runs diametrically across the agar plate in a 1.5 cm wide strip. The plate was then incubated. Following incubation all visible colonies were removed by swabbing them from the agar surface. The plates were then treated with chloroform by dispensing 2 ml of chloroform onto 4 cm×4 cm piece of cloth and sealing the inverted agar plate on top for 30 minutes. The plates were then air dried for 30 minutes following chloroforming. 1-2 indicator strain colonies were then transferred from a stock plate into complementary suspension solution. The suspensions were then vortexed, and a sample was inoculated onto the same agar surface. These samples were streaked in a perpendicular direction to the initial producer streak.\n(§2) Each indicator streak was prepared with fresh a suspension containing cells from a corresponding stock plate containing the indicator strain of interest. Indicator strains suspension samples were transferred using a fresh cotton swab. Results were measured by qualitatively reviewing the subsequent (if any) sizes of the zones of inhibition (ZOI) of indicator strain colony growth. A positive result is when there is a distinctive reduction or complete inhibition of indicator colony growth on the culture medium.\n(§3) CABCa agar plates containing various concentrations of saccharide were prepared according to the methods described in Method 1. Producer strains were transferred from stock agar plates into 900 μL THB using a fresh cotton swab. A plastic spread plater was cut to approximately 1.2 cm width and then dipped into ethanol and left to air dry to ensure sterility. A 100 μL sample of the producer strain suspension was then dispensed onto the agar surface in a straight line running diametrically across the agar surface in (approximately) 20 μL spots. The spots were spaced approximately 1.5 cm apart from each other. The plastic spreader was then used to evenly distribute the spots across the agar surface in a 1.5 cm wide strip. This step was taken to ensure an even producer streak was inoculated onto the agar surface and provided an approximate measure of the initial inoculum concentration. Separate plastic spreaders were used for samples containing different producer strains. The samples were left to soak into the agar surface until there was no visible liquid remaining on the agar surface (approximately 20 minutes). Following producer streak preparations, the deferred antagonism assay protocol was followed as per Method 2. Results were recorded by measuring the size of the zone of inhibition (ZOI) in mm.\n(§4) A dose response assay was carried out according to method 3 above, except a 1.2 cm streak was used. For the individual saccharide testing the pH of the producer streak was adjusted after the growth of producer to change the acidic conditions.\n(§5) A deferred antagonism assay was conducted using K12 or M18 raw ingredient suspended in Todd Hewitt broth (THB). This was spread as a 1.2 cm streak containing approximately 1-2×10^6 cfu down the middle of a CABCa control or CABCa galactose supplemented test plate. After 18 hrs growth at 37° C. with 5% CO2, bacterial growth was removed, and the pH of the agar in the initial streak was measured and adjusted to a pH of 6.5-7.5 using 0.5M sodium carbonate pH11 before sterilizing the agar surface using chloroform vapor. Bacterial test strains were suspended in i-THB before being swabbed across the plates perpendicular to the initial streak. Plates were incubated for a further 18 hrs incubation at 37° C. with 5% CO2 before measuring (mm) any zones of inhibition for each test strain, […]"}, "[2]": {"test_system": "S. aureus A222", "experiment": "Deferred antagonism assay, producer S. salivarius K12", "conditions": "K12", "protocol": "as §1, §2, §3, §4, §5"}, "[3]": {"test_system": "S. pneumoniae D39", "experiment": "Deferred antagonism assay, producer S. salivarius K12", "conditions": "Streptococcus pneumoniae, D39, K12, read-out: Size of zone inhibition normalised to control, S. pneumoniae D39", "protocol": "as §1, §2, §3, §4, §5"}, "[4]": {"test_system": "L. lactis T-21", "experiment": "Dose response deferred antagonism assay, producer M18", "conditions": "1.5% (w/v) galactose, largest"}, "[5]": {"test_system": "indicator bacterial test strains", "experiment": "Inhibitory activity of freeze dried raw ingredient powder, K12", "conditions": "galactose 0.5% w/w; raffinose 2.5% w/w; or combination", "protocol": "Method: The amount of raffinose and galactose used was calculated based on the volume of the area of the producer streak, (which was calculated to be 4.25 g) to allow for the absorption of the saccharides into the agar. Based on this, amount of 0.021 g (i.e. 0.5% w/w galactose of 4.25 g agar volume) of galactose, 0.11 g (i.e 2.5% w/w) of raffinose and the combination of galactose (0.5% w/w) and raffinose (2.5% w/w) (0.13 g total) were weighed into sterile containers. K12 and/or M18 raw ingredient were suspended and diluted with sterile distilled water to a concentration of 1-2×10^6 cfu/100 μl. Then, […] of K12 only, M18 only, and K12±M18 suspensions were spread as a 1 cm streak down the middle of a CABCa agar plate using a sterile spreader. […] Bacterial growth was then removed using a microscope slide, and the pH of the agar in the producer streak area was measured and adjusted to pH 6.5-7.5 using 0.5M sodium carbonate (pH 11) before surface sterilizing the plates with chloroform vapour. […] Zones of inhibition for each test organism were then measured in mm using a ruler. The amount of raffinose and galactose to be used was calculated based on the volume of the area of the producer streak, (which was calculated to be 4.25 g) to allow for absorption into the agar."}, "[6]": {"test_system": "indicator strains", "experiment": "Deferred antagonism assay, producer S. salivarius M18: total strains inhibited", "protocol": "as §1, §2, §3, §4, §5"}},
  "data": [
    {"smiles": "O=C[C@H](O)[C@@H](O)[C@@H](O)[C@H](O)CO", "note": "[Galactose, D-galactose]", "values": [
      {"measurement": "zone of inhibition at 0.5 % strength", "setting": "[1]; Galactose 0.5% w/w", "value": 4.5, "unit": "mm"},
      {"measurement": "zone of inhibition at 1.25 % strength", "setting": "[1]; Galactose 1.25% w/w", "value": 3.5, "unit": "mm"},
      {"measurement": "zone of inhibition at 1.7 % strength", "setting": "[1]; Galactose 1.7% w/w", "value": 3.5, "unit": "mm"},
      {"measurement": "zone of inhibition at 2.5 % strength", "setting": "[1]; Galactose 2.5% w/w", "value": 5.5, "unit": "mm"},
      {"measurement": "zone of inhibition at 3.3 % strength", "setting": "[1]; Galactose 3.3% w/w", "value": 1.5, "unit": "mm"},
      {"measurement": "zone of inhibition at 5 % strength", "setting": "[1]; Galactose 5% w/w", "value": 0, "unit": "mm"},
      {"measurement": "Inhibitory activity of S. salivarius K12 in presence of saccharides, S. aureus A222", "setting": "[2]; saccharide range 0.83%-3.3% w/v", "value": "✓"},
      {"measurement": "zone of inhibition at 0.5 % strength", "setting": "[2]; Staphylococcus aureus, A222, Galactose 0.5% w/w, read-out: Size of zone inhibition normalised to control, S. aureus A222", "value": 12, "unit": "mm"},
      {"measurement": "zone of inhibition at 1.25 % strength", "setting": "[2]; Staphylococcus aureus, A222, Galactose 1.25% w/w, read-out: Size of zone inhibition normalised to control, S. aureus A222", "value": 8, "unit": "mm"},
      {"measurement": "zone of inhibition at 1.7 % strength", "setting": "[2]; Staphylococcus aureus, A222, Galactose 1.7% w/w, read-out: Size of zone inhibition normalised to control, S. aureus A222", "value": 9, "unit": "mm"},
      {"measurement": "zone of inhibition at 2.5 % strength", "setting": "[2]; Staphylococcus aureus, A222, Galactose 2.5% w/w, read-out: Size of zone inhibition normalised to control, S. aureus A222", "value": 6, "unit": "mm"},
      {"measurement": "zone of inhibition at 3.3 % strength", "setting": "[2]; Staphylococcus aureus, A222, Galactose 3.3% w/w, read-out: Size of zone inhibition normalised to control, S. aureus A222", "value": 0, "unit": "mm"},
      {"measurement": "zone of inhibition at 5 % strength", "setting": "[2]; Staphylococcus aureus, A222, Galactose 5% w/w, read-out: Size of zone inhibition normalised to control, S. aureus A222", "value": 0, "unit": "mm"},
      {"measurement": "zone of inhibition at 0.5 % strength", "setting": "[3]; Galactose 0.5% w/w", "value": 8, "unit": "mm"},
      {"measurement": "zone of inhibition at 1.25 % strength", "setting": "[3]; Galactose 1.25% w/w", "value": 3, "unit": "mm"},
      {"measurement": "zone of inhibition at 1.7 % strength", "setting": "[3]; Galactose 1.7% w/w", "value": 2, "unit": "mm"},
      {"measurement": "zone of inhibition at 2.5 % strength", "setting": "[3]; Galactose 2.5% w/w", "value": 6, "unit": "mm"},
      {"measurement": "zone of inhibition at 3.3 % strength", "setting": "[3]; Galactose 3.3% w/w", "value": 0, "unit": "mm"},
      {"measurement": "zone of inhibition at 5 % strength", "setting": "[3]; Galactose 5% w/w", "value": 0, "unit": "mm"},
      {"measurement": "L. lactis zone of inhibition", "setting": "[4]", "value": 9, "unit": "mm"},
      {"measurement": "inhibitory activity of freeze-dried raw ingredient powder of K12", "setting": "[5]", "value": "induced the inhibitory activity"},
      {"measurement": "Total stains inhibited", "setting": "[6]; Galactose 0.5% w/w", "value": "5/7"},
      {"measurement": "Total stains inhibited", "setting": "[6]; Galactose 1.25% w/w", "value": "4/7"},
      {"measurement": "Total stains inhibited", "setting": "[6]; Galactose 1.7% w/w", "value": "1/7"},
      {"measurement": "Total stains inhibited", "setting": "[6]; Galactose 2.5% w/w", "value": "2/7"},
      {"measurement": "Total stains inhibited", "setting": "[6]; Galactose 3.3% w/w", "value": "5/7"},
      {"measurement": "Total stains inhibited", "setting": "[6]; Galactose 5% w/w", "value": "2/7"}
    ]}
  ]
}
